Data taken from US20050208037A1, “Thioredoxin increases redox-cycling of anticancer agents thereby sensitizes cancer cells to apoptosis” (Board of Regents, The University of Texas System, priority 2003, published 2005).
Structures can show the parent of a compound that is named as a salt.

Tests used:
[1] = tested on: Trx9 cells (MCF-7 clones expressing thioredoxin); assay: Superoxide production in cell lysate by SOD-inhibitable reduction of ferricytochrome c; assay type: biochemical, human; settings: Trx9 compared to vector-transfected cells; 10 μM drug
Description: Determination of superoxide production by reduction of ferricytochrome c. Superoxide production was measured as superoxide dismutase (SOD) inhibitable reduction of ferricytochrome c (Azzi et al. 1975). Cells were sonicated in potassium phosphate buffer (0.05M, pH 7.8 plus 1 mM EDTA), centrifuged and the supernatant was used for the assay. To determine the superoxide generation in the cell lysate, the supernatant was incubated with 10 μM drug and 10 μM cytochrome c, with or without 1U SOD to determine SOD inhibitable rate. The specificity of thioredoxin mediated superoxide generation in the supernatant was detected by pre-incubation of cell lysates with anti-human thioredoxin antibody (American Diagnostica, Greenwich, Conn.) for 15 min. All reactions were performed in triplicate. The reduction of ferricytochrome c was measured both in kinetic and end point mode with path check on for 1 hr duration at a wavelength of 550 nm using a Spectramax 190 plate reader (Molecular Devices). Total protein was quantified using Bradford protein assay (Biorad) and the superoxide generation was determined per milligram of protein in the extracts.

E. coli thioredoxin = biological target: T1, E. coli thioredoxin (Escherichia coli, UniProt P0AA25); assay: Thioredoxin redox state by carboxymethylation and western analysis; assay type: biochemical; settings: TR and doxorubicin
T1 construct: purchased Promega Inc (thioredoxin); American Diagnostica Inc (thioredoxin reductase)
Description: Carboxymethylation of thioredoxin. In order to analyze the possible role of thioredoxin in the redox-cycling of anthracyclines the redox status of thioredoxin was determined by carboxymethylation at the end of assay. Carboxymethylation was done as described previously (Das et al., 1997). Equal volume of carboxymethylation buffer (0.1 M Tris; pH 8.8, 12 mg/ml iodoacetic acid, 3 mM EDTA, 7 M guanidine hydrochloride, and 0.5% Triton X-100, equilibrated with nitrogen for 1 h) was added and incubated at 37° C. in the dark for 45 min. After incubation the excess reagent was removed using Sephadex G-25 spin column, and the elute was used for western blot detection of thioredoxin.
Western analysis of thioredoxin redox state. […] The protein was transferred to PVDF membrane using a miniprotein transblot apparatus (Bio-Rad). The PVDF membrane was washed and incubated with mouse anti-E. coli Trx IgG (MBL, Nagoya, Japan). After washing, the blot was incubated with anti Mouse IgG- horseradish peroxidase conjugate for 1 h at room temperature. Binding of secondary antibody was detected using an enhanced chemiluminescence (ECL Plus) detection system (Amersham Pharmacia Biotech, Piscataway, N.J.). Western blot was quantified using densitometric analysis software (NIH Image 1.61).

[2] = biological target: T2, cytochrome P450 reductase (Oryctolagus cuniculus, UniProt P00389); assay: Cytochrome P450 reductase mediated SOD-inhibitable superoxide generation; assay type: biochemical, rabbit; settings: 10 μM doxorubicin, Trx-SH alone as electron donor, absence of NADPH
T2 construct: purchased Sigma Chemicals (St. Louis, Mo.); host or cells: rabbit liver
T2 sequence (P00389 1-679): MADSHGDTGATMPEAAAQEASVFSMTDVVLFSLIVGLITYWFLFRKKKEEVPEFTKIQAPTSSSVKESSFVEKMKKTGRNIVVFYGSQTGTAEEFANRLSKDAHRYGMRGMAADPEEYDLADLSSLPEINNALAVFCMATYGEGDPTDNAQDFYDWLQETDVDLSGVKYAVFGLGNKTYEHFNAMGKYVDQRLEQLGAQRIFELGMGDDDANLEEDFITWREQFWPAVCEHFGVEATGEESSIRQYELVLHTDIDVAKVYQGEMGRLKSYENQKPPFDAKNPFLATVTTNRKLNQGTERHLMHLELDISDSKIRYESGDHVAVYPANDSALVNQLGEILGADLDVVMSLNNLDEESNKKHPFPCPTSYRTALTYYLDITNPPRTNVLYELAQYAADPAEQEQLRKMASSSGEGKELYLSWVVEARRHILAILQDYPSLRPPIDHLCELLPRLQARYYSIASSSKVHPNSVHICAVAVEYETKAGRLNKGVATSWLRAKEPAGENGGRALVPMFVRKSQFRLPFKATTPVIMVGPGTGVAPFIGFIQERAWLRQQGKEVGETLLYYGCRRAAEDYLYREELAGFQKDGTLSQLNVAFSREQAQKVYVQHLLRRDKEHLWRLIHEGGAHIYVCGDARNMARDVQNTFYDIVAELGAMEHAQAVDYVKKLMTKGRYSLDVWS
Description: Superoxide detection by cytochrome c reduction assay. Superoxide (O2—) generated in the process of redox-cycling was detected by SOD inhibitable rate of ferricytochrome c reduction (Das et al., 2000). […] Reaction blank contained potassium phosphate buffer, cytochrome c and NADPH with or without SOD, and controls included 0.35-0.7 μg TR and /or Trx in buffer. All reactions were performed in triplicate.

[3] = cited from earlier work
[4] = tested on: Trx9 cells (MCF-7 clones expressing thioredoxin); assay: In situ detection of ROS by DCF-DA fluorescence; assay type: cell-based, human; settings: Trx9 compared to vector cells
Description: In situ detection of superoxide by fluorescent probe DiCarboxyFluorescein-DiAcetate (DCF-DA). Cells were grown in chambered glass slides (Nunc) to a final density of 25,000 cells per well.

[5] = biological target: T3, E. coli thioredoxin reductase-thioredoxin system (Escherichia coli, UniProt P0A9P4); assay: Superoxide detection by cytochrome c reduction assay with thioredoxin system; assay type: biochemical
T3 construct: purchased American Diagnostica Inc (thioredoxin reductase); Promega Inc (thioredoxin)
Description: Superoxide detection by cytochrome c reduction assay. Superoxide (O2—) generated in the process of redox-cycling was detected by SOD inhibitable rate of ferricytochrome c reduction (Das et al., 2000). The reaction mixture contained 0.05 M potassium phosphate buffer (pH 7.78), 1 mM EDTA, 10 μM cytochrome c and 200 μM NADPH. […] The rate of […] of cytochrome c was measured at 550 nm for 0-15 minutes using Shimadzu UV-1601PC in kinetic mode. Reaction blank contained potassium phosphate buffer, cytochrome c and NADPH with or without SOD, and controls included 0.35-0.7 μg TR and /or Trx in buffer. All reactions were performed in triplicate.

p53 in A549 cells = assay: EMSA of p53 DNA binding; assay type: cell-based, human; settings: E. coli Trx 32 μM 16 h followed by daunomycin 1 μM 4 h
Description: Nuclear Extract preparation. Nuclear extract was prepared as described previously (Das, 2001). […] The extracts were then centrifuged at 14,000 rpm for 25 min and the supernatant was saved as nuclear extract in −70° C. for further experiments. Protein was quantified using Bradford protein assay (Biorad).
Electrophoretic Mobility shift assay (EMSA). For the EMSA the p53 consensus oligonucleotide was obtained from Genosys 5′-[…]-3′ (SEQ ID NO:9) and end labeled using T4 Poly nucleotide kinase (New England Biolabs, Beverly, Mass.) and [γ-^32P] ATP (Perkin Elmer, Boston, Mass.) in 10× kinase buffer supplied with the enzyme. […] The nuclear protein was separated by electrophoresis using 4% native polyacrylamide gel and 0.25× of TBE (Tris-Borate-EDTA) as running buffer. The gels were dried and exposed to Kodax Biomax X-ray film overnight.

A549 cells [6] = assay: ROS detection by DCF-DA fluorescence; assay type: cell-based, human
Description: In situ detection of superoxide by fluorescent probe DiCarboxyFluorescein-DiAcetate (DCF-DA). […] Cells were pre-incubated with 20 μM DCF-DA (Sigma, St. Louis, Mo.) in 20 mM Hepes in Phosphate Buffered Saline (PBS) containing bovine serum albumin (BSA, 5 mg/ml) at 37° C. for 30 min followed by washing with PBS buffer, and the drug was added and observed for 10-15 min in a Nikon laser confocal microscope using laser beam wavelength 488 nm analyzed by Ultraview software (Perkin-Elmer).

[7] = biological target: T4, human thioredoxin reductase (Homo sapiens, UniProt Q16881); settings: cited from earlier work
T4 sequence (Q16881 151-649 limits assumed): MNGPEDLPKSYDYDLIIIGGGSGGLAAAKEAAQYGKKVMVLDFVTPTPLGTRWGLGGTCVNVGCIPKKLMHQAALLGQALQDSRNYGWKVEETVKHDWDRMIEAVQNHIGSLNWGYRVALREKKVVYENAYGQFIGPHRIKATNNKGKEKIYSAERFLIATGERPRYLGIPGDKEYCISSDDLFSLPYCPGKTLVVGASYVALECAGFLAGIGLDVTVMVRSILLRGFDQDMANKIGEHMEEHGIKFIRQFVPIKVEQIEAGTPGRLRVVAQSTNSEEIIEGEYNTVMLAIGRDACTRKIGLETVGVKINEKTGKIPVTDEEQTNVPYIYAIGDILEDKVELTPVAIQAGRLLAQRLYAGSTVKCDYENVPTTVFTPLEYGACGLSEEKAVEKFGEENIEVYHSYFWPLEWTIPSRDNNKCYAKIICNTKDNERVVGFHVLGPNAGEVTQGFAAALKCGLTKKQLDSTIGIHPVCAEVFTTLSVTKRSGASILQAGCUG

A549 cells [8] = settings: E. coli thioredoxin 32 μM 16 hr followed by daunomycin 1 μM 4 hr
Description: TUNEL assay. Apoptotic cells were detected using In Situ Cell Death detection, POD kit (Roche Molecular Biochemicals, Indianapolis, Ind.). Apoptotic DNA strand breaks were identified by labeling 3′-OH termini with fluorescein-dUTP using Terminal deoxy Transferase as per manufacturer's protocol. For this assay cells were allowed to adhere overnight in chambered glass slides (Nunc) to a final density of 25,000 cells per well. Followed by treatment with the appropriate concentration of drugs the media was removed and washed twice with PBS containing 1% BSA and the cells fixed in 4% paraformaldehyde for 30 min and washed with PBS containing 1% BSA. The cells were then permeabilized with 0.1% Triton X-100 in 0.1% sodium citrate for 2 min on ice and washed twice with PBS containing 1% BSA. The labeling reaction was performed using FITC labeled dUTP along with other nucleotides by terminal deoxynucleotidyl transferase for 60 mins in dark at 37° C. in humidified chamber. The cells were washed with PBS-1% BSA, mounted onto a slide, and the incorporated fluorescein-dUTP was analyzed using Nikon laser confocal microscope.

T3 sequence (P0A9P4 2-321): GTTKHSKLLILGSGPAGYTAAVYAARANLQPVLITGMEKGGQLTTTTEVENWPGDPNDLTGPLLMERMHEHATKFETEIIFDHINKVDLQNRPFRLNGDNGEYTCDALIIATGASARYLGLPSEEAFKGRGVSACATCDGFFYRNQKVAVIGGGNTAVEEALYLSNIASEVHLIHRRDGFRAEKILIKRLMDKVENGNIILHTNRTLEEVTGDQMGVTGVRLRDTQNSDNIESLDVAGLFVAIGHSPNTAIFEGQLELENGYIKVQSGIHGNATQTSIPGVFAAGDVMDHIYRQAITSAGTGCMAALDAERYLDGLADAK
T1 sequence (P0AA25 2-109): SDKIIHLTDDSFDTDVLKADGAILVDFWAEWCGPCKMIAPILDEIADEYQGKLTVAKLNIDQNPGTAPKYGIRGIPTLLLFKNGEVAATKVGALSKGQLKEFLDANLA

Row | Compound | O2— production [1] | level of Trx-S2 (oxidized thioredoxin) (E. coli thioredoxin; 28.7% without doxorubicin) | level of reduced thioredoxin (E. coli thioredoxin; Trx, 71.3% in thioredoxin-thioredoxin reductase system only) | SOD inhibitable O2— generation [2] | excreted into the urine ([3]; in vivo) | elimination half-life ([3]; intravenous) | absorption ([3]; oral) | DCF-DA fluorescence (oxidation of DCF-DA) [4] | levels of O2— generated ([5]; drug 10 μM with thioredoxin reductase alone) | SOD inhibitable rate of ferricytochrome c reduction ([5]; drug alone, 10 μM) | rate of superoxide generation as compared to daunomycin ([5]; thioredoxin reductase alone or thioredoxin reductase-thioredoxin system, 10 μM drug) | p53 DNA binding (p53 in A549 cells) | ROS generation (DCF-DA) (A549 cells [6]; E. coli thioredoxin only (32 μM, 16 hr)) | ROS generation (DCF-DA) (A549 cells [6]; pretreated with E. coli thioredoxin (32 μM, 16 hr) followed by 1 μM daunomycin) | Km as a substrate for human thioredoxin reductase [7] | TUNEL positive nuclei (A549 cells [8]) | levels of O2— generated ([5]; addition of 3.2 μM Trx to thioredoxin reductase with daunomycin or doxorubicin) | rate of O2— generation with doxorubicin ([5]; thioredoxin from 1.6 to 6.4 μM, 0.35 μg thioredoxin reductase, 10 μM doxorubicin)
1 | COc1cccc2c1C(=O)c1c(O)c3c(c(O)c1C2=O)C[C@@](O)(C(=O)CO)C[C@@H]3O[C@H]1C[C@H](N)[C@H](O)[C@H](C)O1 [doxorubicin, 5,12-Naphthacenedione, (8 s-cis)-10-[(3-amino-2,3,6-trideoxy-a-L-lyxo-hexopyranosyl)oxy]-7,8,9,10-tetrahydro-6,8,11-trihydroxy-8-(hydroxyacetyl)-1-methoxy-hydrochloride] | significantly higher level of O2— | 53% | 47% | generated O2— | a few percent | about 30 hr | poorly absorbed | enhanced fluorescence | significantly higher levels of O2— | did not show significant level | two fold increase | – | – | – | – | – | – | –
2 | E. coli thioredoxin: E. coli thioredoxin obtained from Promega; sequence of SEQ ID NO:4 | – | – | – | – | – | – | – | – | – | – | – | increased p53 DNA binding | No ROS were detected | significantly higher level of ROS generation | 35 µM | increase in TUNEL positive nuclei | further enhanced the levels of O2— | proportional increase in the rate of O2— generation
